# Values joined by “and” are separate entries in the source; they are usually repeats but may differ in a detail not shown here. Identical values can stand only once. “Also recorded” adds a separate entry of the source. Like-named read-outs stand apart in the source and are kept apart here.
# How the values were obtained:
# [1] = previous studies; cited from earlier work
# [2] = test system: cancer cells or cancer stem cells; assay: In vitro IC50 on cancer cells or cancer stem cells; type: cell-based
# [3] = Phase I clinical trial: plasma pharmacokinetics; type: in vivo, human; parameters: AUC0-24 hrs: concentration or dose not given beside the values; details: for AUC0-24 hrs: in µM·h
# Description: A favorable PK profile with oral bid dosing was also observed. The plasma concentration reached several folds over efficacious concentration (in vitro IC50).
# In yet another suitable dosing regimen, Compound 1 is administered with food which delays the Tmax (Table 13).
# [4] = Phase I clinical trial: safety and adverse events
# Description: A cycle consists of twice-daily oral administration of the compound for 4 weeks. Cycles were repeated every 4 weeks (28 days) until progression of disease, unacceptable toxicity, or another discontinuation criterion is met. The dose escalation trial was conducted as open label and multicenter trial. A modified Simon accelerated titration scheme was used for dose escalation.
# The primary objective of the trial was to determine the safety, tolerability, and recommended phase II dose (RP2D). The secondary objectives of the trial were to determine the pharmacokinetic profile of the compound, pharmacodynamics of the compound, and preliminary antitumor activity of the compound.
# The inclusion criteria included histologically or cytologically confirmed solid tumor that is metastatic, unresectable, or recurrent; ≧18 years of age; Measurable disease by RECIST; and Karnofsky≧70%. The exclusion criteria included chemotherapy, radiotherapy, immunotherapy or investigational agent within 4 weeks of first dose; surgery within 4 weeks of first dose; and known brain metastases.
# [5] = Phase I patients, 20-2000 mg/day oral
# [6] = Phase I, dose escalated from 20 mg to 2000 mg/day
smiles,measurement,setting,value
"CC(=O)c1cc2c(o1)C(=O)c1ccccc1C2=O [Compound 1, 2-acetyl-4H,9H-naphtho[2,3-b]furan-4,9-dione]",antitumor activity in animal model,[1],no antitumor activity was observed
same,IC50,"[2]; preclinical studies, read-out: IC50 to kill cancer cells or cancer stem cells",100 to 200 nM
same,IC50,[2]; read-out: IC50 of the compound in vitro,30 to 500 nM
same,clearance from blood,[3]; 20 mg QD (FIG. 21),rapidly cleared from the blood
same,time plasma concentration sustained at at least 1.5 μM,[3]; 320 mg/day dose level,over 8 hours
same,plasma concentration sustained,"[3]; 320 mg/day dose level, for over 8 hours",at least 1.5 μM
same,Cmax,[3]; Fasting,2550 nM
same,AUC0-24 hrs,[3]; Fasting,20.72
same,pharmacokinetics (linearity),[3]; doses through about 1000 mg/day,apparent linear pharmacokinetics
same,AUC(0-t),"[3]; human, plasma, oral, 80 mg, total daily dose 80 mg, BID dosing, read-out: AUC0-24",7.95 µM·h
same,AUC(0-t),"[3]; human, plasma, oral, 160 mg, total daily dose 160 mg, BID dosing, read-out: AUC0-24",9.52 µM·h
same,AUC(0-t),"[3]; human, plasma, oral, 320 mg, total daily dose 320 mg, BID dosing, read-out: AUC0-24",29.8 µM·h
same,AUC(0-t),"[3]; human, plasma, oral, 400 mg, total daily dose 400 mg, BID dosing, read-out: AUC0-24",53.6 µM·h
same,AUC(0-t),"[3]; human, plasma, oral, 600 mg, total daily dose 600 mg, BID dosing, read-out: AUC0-24",27.3 µM·h
same,AUC(0-t),"[3]; human, plasma, oral, 800 mg, total daily dose 800 mg, BID dosing, read-out: AUC0-24",26.4 µM·h
same,AUC(0-t),"[3]; human, plasma, oral, 1000 mg, total daily dose 1000 mg, BID dosing, read-out: AUC0-24",42.6 µM·h
same,AUC(0-t),"[3]; human, plasma, oral, 1400 mg, total daily dose 1400 mg, BID dosing, read-out: AUC0-24",28.4 µM·h
same,AUC(0-t),"[3]; human, plasma, oral, 2000 mg, total daily dose 2000 mg, BID dosing, read-out: AUC0-24",39.1 µM·h
same,Cmax,"[3]; human, plasma, oral, Fasting",2010 nM
same,AUC(0-t),"[3]; human, plasma, oral, Fasting, read-out: AUC0-24 hrs",20.1 µM·h
same,Tmax,"[3]; human, plasma, oral, patient 20, Fasting",2 h
same,Tmax,"[3]; human, plasma, oral, patient 20, With Food",8 h
same,Tmax,"[3]; human, plasma, oral, patient 20, With Milk",2 h
same,Tmax,"[3]; human, plasma, oral, patient 21, Fasting",6 h
same,Tmax,"[3]; human, plasma, oral, patient 21, With Food",6 h
same,Tmax,"[3]; human, plasma, oral, patient 21, With Milk",6 h
same,Tmax,"[3]; human, plasma, oral, patient 22, Fasting",8 h
same,Tmax,"[3]; human, plasma, oral, patient 22, With Food",10 h
same,Tmax,"[3]; human, plasma, oral, patient 22, With Milk",8 h
same,Tmax,"[3]; human, plasma, oral, patient 24, With Food",10 h
same,Tmax,"[3]; human, plasma, oral, patient 24, With Milk",6.3 h
same,Tmax,"[3]; human, plasma, oral, patient 27, With Food",6 h
same,Tmax,"[3]; human, plasma, oral, patient 27, With Milk",0.5 h
same,Tmax,"[3]; human, plasma, oral, patient 28, With Food",10 h
same,Tmax,"[3]; human, plasma, oral, patient 28, With Milk",6 h
same,Cmax,"[3]; human, plasma, oral, with Milk",3050 nM
same,AUC(0-t),"[3]; human, plasma, oral, with Milk, read-out: AUC0-24 hrs",31.4 µM·h
same,drug accumulation,"[3]; repeated daily dosing every 28 days, doses through about 1000 mg/day",no evidence of drug accumulation
same,Cmax,[3]; with Milk,2890 nM
same,AUC0-24 hrs Fold Change,[3]; with Milk versus Fasting,1.56 and 1.55
same,Cmax Fold Change,[3]; with Milk versus Fasting,1.52 and 1.13
same,AUC0-24 hrs,[3]; with Milk,32.16
same,tolerability in humans,[4]; 20 mg QD,good tolerability
same,tolerability in humans,[4]; 500 mg TID,good tolerability
same,"Anorexia, Any Grade, # of Events",[4]; [5],4
same,"Anorexia, Any Grade, % of Total",[4]; [5],4.9%
same,"Anorexia, Grade 1, # of Events",[4]; [5],3
same,"Anorexia, Grade 1, % of Total",[4]; [5],3.7%
same,"Anorexia, Grade 2, # of Events",[4]; [5],1
same,"Anorexia, Grade 2, % of Total",[4]; [5],1.2%
same,"Anorexia, Grade 3, # of Events",[4]; [5],0
same,"Anorexia, Grade 3, % of Total",[4]; [5],0.0%
same,"Diarrhea, Any Grade, # of Events",[4]; [5],23
same,"Diarrhea, Any Grade, % of Total",[4]; [5],28.4%
same,"Diarrhea, Grade 1, # of Events",[4]; [5],20
same,"Diarrhea, Grade 1, % of Total",[4]; [5],24.7%
same,"Diarrhea, Grade 2, # of Events",[4]; [5],2
same,"Diarrhea, Grade 2, % of Total",[4]; [5],2.5%
same,"Diarrhea, Grade 3, # of Events",[4]; [5],2
same,"Diarrhea, Grade 3, % of Total",[4]; [5],2.5%
same,"Dysgusia, Any Grade, # of Events",[4]; [5],3
same,"Dysgusia, Any Grade, % of Total",[4]; [5],3.7%
same,"Dysgusia, Grade 1, # of Events",[4]; [5],3
same,"Dysgusia, Grade 1, % of Total",[4]; [5],3.7%
same,"Dysgusia, Grade 2, # of Events",[4]; [5],0
same,"Dysgusia, Grade 2, % of Total",[4]; [5],0.0%
same,"Dysgusia, Grade 3, # of Events",[4]; [5],0
same,"Dysgusia, Grade 3, % of Total",[4]; [5],0.0%
same,"Fatigue, Any Grade, # of Events",[4]; [5],4
same,"Fatigue, Any Grade, % of Total",[4]; [5],4.9%
same,"Fatigue, Grade 1, # of Events",[4]; [5],1
same,"Fatigue, Grade 1, % of Total",[4]; [5],1.2%
same,"Fatigue, Grade 2, # of Events",[4]; [5],2
same,"Fatigue, Grade 2, % of Total",[4]; [5],2.5%
same,"Fatigue, Grade 3, # of Events",[4]; [5],1
same,"Fatigue, Grade 3, % of Total",[4]; [5],1.2%
same,"Fever, Any Grade, # of Events",[4]; [5],2
same,"Fever, Any Grade, % of Total",[4]; [5],2.5%
same,"Fever, Grade 1, # of Events",[4]; [5],1
same,"Fever, Grade 1, % of Total",[4]; [5],1.2%
same,"Fever, Grade 2, # of Events",[4]; [5],1
same,"Fever, Grade 2, % of Total",[4]; [5],1.2%
same,"Fever, Grade 3, # of Events",[4]; [5],0
same,"Fever, Grade 3, % of Total",[4]; [5],0.0%
same,"Loose stools, Any Grade, # of Events",[4]; [5],2
same,"Loose stools, Any Grade, % of Total",[4]; [5],2.5%
same,"Loose stools, Grade 1, # of Events",[4]; [5],2
same,"Loose stools, Grade 1, % of Total",[4]; [5],2.5%
same,"Loose stools, Grade 2, # of Events",[4]; [5],0
same,"Loose stools, Grade 2, % of Total",[4]; [5],0.0%
same,"Loose stools, Grade 3, # of Events",[4]; [5],0
same,"Loose stools, Grade 3, % of Total",[4]; [5],0.0%
same,"Nausea, Any Grade, # of Events",[4]; [5],10
same,"Nausea, Any Grade, % of Total",[4]; [5],12.3%
same,"Nausea, Grade 1, # of Events",[4]; [5],8
same,"Nausea, Grade 1, % of Total",[4]; [5],9.9%
same,"Nausea, Grade 2, # of Events",[4]; [5],2
same,"Nausea, Grade 2, % of Total",[4]; [5],2.5%
same,"Nausea, Grade 3, # of Events",[4]; [5],0
same,"Nausea, Grade 3, % of Total",[4]; [5],0.0%
same,"Skin Rash, Any Grade, # of Events",[4]; [5],2
same,"Skin Rash, Any Grade, % of Total",[4]; [5],2.5%
same,"Skin Rash, Grade 1, # of Events",[4]; [5],2
same,"Skin Rash, Grade 1, % of Total",[4]; [5],2.5%
same,"Skin Rash, Grade 2, # of Events",[4]; [5],0
same,"Skin Rash, Grade 2, % of Total",[4]; [5],0.0%
same,"Skin Rash, Grade 3, # of Events",[4]; [5],0
same,"Skin Rash, Grade 3, % of Total",[4]; [5],0.0%
same,"Urine Color Change, Any Grade, # of Events",[4]; [5],2
same,"Urine Color Change, Any Grade, % of Total",[4]; [5],2.5%
same,"Urine Color Change, Grade 1, # of Events",[4]; [5],2
same,"Urine Color Change, Grade 1, % of Total",[4]; [5],2.5%
same,"Urine Color Change, Grade 2, # of Events",[4]; [5],0
same,"Urine Color Change, Grade 2, % of Total",[4]; [5],0.0%
same,"Urine Color Change, Grade 3, # of Events",[4]; [5],0
same,"Urine Color Change, Grade 3, % of Total",[4]; [5],0.0%
same,"Vomiting, Any Grade, # of Events",[4]; [5],14
same,"Vomiting, Any Grade, % of Total",[4]; [5],17.3%
same,"Vomiting, Grade 1, # of Events",[4]; [5],13
same,"Vomiting, Grade 1, % of Total",[4]; [5],16.0%
same,"Vomiting, Grade 2, # of Events",[4]; [5],1
same,"Vomiting, Grade 2, % of Total",[4]; [5],1.2%
same,"Vomiting, Grade 3, # of Events",[4]; [5],0
same,"Vomiting, Grade 3, % of Total",[4]; [5],0.0%
same,"abdominal cramps, Any Grade, # of Events",[4]; [5],6
same,"abdominal cramps, Any Grade, % of Total",[4]; [5],7.4%
same,"abdominal cramps, Grade 1, # of Events",[4]; [5],5
same,"abdominal cramps, Grade 1, % of Total",[4]; [5],6.2%
same,"abdominal cramps, Grade 2, # of Events",[4]; [5],1
same,"abdominal cramps, Grade 2, % of Total",[4]; [5],1.2%
same,"abdominal cramps, Grade 3, # of Events",[4]; [5],0
same,"abdominal cramps, Grade 3, % of Total",[4]; [5],0.0%
same,"decreased appetite, Any Grade, # of Events",[4]; [5],2
same,"decreased appetite, Any Grade, % of Total",[4]; [5],2.5%
same,"decreased appetite, Grade 1, # of Events",[4]; [5],1
same,"decreased appetite, Grade 1, % of Total",[4]; [5],1.2%
same,"decreased appetite, Grade 2, # of Events",[4]; [5],1
same,"decreased appetite, Grade 2, % of Total",[4]; [5],1.2%
same,"decreased appetite, Grade 3, # of Events",[4]; [5],0
same,"decreased appetite, Grade 3, % of Total",[4]; [5],0.0%
same,"dizzyness, Any Grade, # of Events",[4]; [5],2
same,"dizzyness, Any Grade, % of Total",[4]; [5],2.5%
same,"dizzyness, Grade 1, # of Events",[4]; [5],2
same,"dizzyness, Grade 1, % of Total",[4]; [5],2.5%
same,"dizzyness, Grade 2, # of Events",[4]; [5],0
same,"dizzyness, Grade 2, % of Total",[4]; [5],0.0%
same,"dizzyness, Grade 3, # of Events",[4]; [5],0
same,"dizzyness, Grade 3, % of Total",[4]; [5],0.0%
same,"weakness, Any Grade, # of Events",[4]; [5],5
same,"weakness, Any Grade, % of Total",[4]; [5],6.2%
same,"weakness, Grade 1, # of Events",[4]; [5],2
same,"weakness, Grade 1, % of Total",[4]; [5],2.5%
same,"weakness, Grade 2, # of Events",[4]; [5],3
same,"weakness, Grade 2, % of Total",[4]; [5],3.7%
same,"weakness, Grade 3, # of Events",[4]; [5],0
same,"weakness, Grade 3, % of Total",[4]; [5],0.0%
same,tolerability of dose escalation in patients,"[4]; Phase I, 20 mg to 2000 mg/day",without drug-induced adverse effects; also recorded: well tolerated
same,dose-limiting toxicity,[4]; [6],No dose-limiting toxicity was observed; also recorded: No dose limiting toxicity was observed
same,maximum tolerated dose (MTD),[4]; [6],not reached; also recorded: neither MTD nor RP2D has been reached

# From US9084766B2, “Compounds and compositions for targeting cancer stem cells” (Boston Biomedical, Inc., priority 2010, dated 2015)
